Results as given in patent US10329295B2, “Pyrrolotriazine inhibitors of IRAK4 activity” (MERCK SHARP & DOHME CORP., priority 2015, dated 2019).
Counter-ions that a name gives are not always drawn.

Molecular target: GST tagged IRAK4 (Homo sapiens (Human), UniProt Q9NWZ3)
Assay: IRAK4 Kinase Assay (IMAP fluorescence polarization)
Assay type: biochemical
Details: 0.5 nM GST tagged IRAK4, 100 μM ATP, 30 minutes at 25° C.
Method in brief: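 Reactions contained 0.5 nM GST-IRAK4, 100 nM fluorescent peptide substrate and 100 μM ATP in 10 mM Tris-HCl pH 7.2 with 1 mM MgCl2, and were started with ATP. After 30 minutes at 25° C they were stopped with IMAP reagent. Substrate phosphorylation was read as the change in fluorescence polarization.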

Chain of GST tagged IRAK4 (Q9NWZ3 whole entry): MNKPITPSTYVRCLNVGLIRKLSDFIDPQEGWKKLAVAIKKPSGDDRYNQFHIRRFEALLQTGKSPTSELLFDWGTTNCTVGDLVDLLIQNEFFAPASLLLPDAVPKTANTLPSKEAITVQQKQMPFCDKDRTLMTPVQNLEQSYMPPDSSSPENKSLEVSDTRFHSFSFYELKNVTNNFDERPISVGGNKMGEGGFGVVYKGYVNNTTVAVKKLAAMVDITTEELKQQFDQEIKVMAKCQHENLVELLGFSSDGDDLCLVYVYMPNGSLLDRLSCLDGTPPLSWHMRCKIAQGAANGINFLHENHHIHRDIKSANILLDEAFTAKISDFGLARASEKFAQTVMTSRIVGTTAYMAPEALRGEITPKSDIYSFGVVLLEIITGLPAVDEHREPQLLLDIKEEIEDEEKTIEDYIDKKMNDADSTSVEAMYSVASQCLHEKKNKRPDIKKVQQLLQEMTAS

| IC50 | Compound |
| --- | --- |
| 301 nM | COCCn1cc(NC(=O)c2ccc3cnc(N[C@@H]4CCCC[C@@H]4N)nn23)cn1 [Example 168, 2-{[(1R,2S)-2-aminocyclohexyl]amino}-N-[1-(2-methoxyethyl)-1H-pyrazol-4-yl]pyrrolo[2,1-f][1,2,4]triazine-7-carboxamide trifluoroacetate] |
| 35 nM | Cn1cc(NC(=O)c2ccc3cnc(N[C@@H]4CCCC[C@@H]4N)nn23)cn1 [Example 169, 2-{[(1R,2S)-2-aminocyclohexyl]amino}-N-(1-methyl-1H-pyrazol-4-yl)pyrrolo[2,1-f][1,2,4]triazine-7-carboxamide trifluoroacetate] |
